Residues, ends and D or L forms follow the SMILES beside them. *: point of attachment. Cbz = O=C(OCc1ccccc1)*
Tests used:
SU86.86 cells = test: qPCR, immunoblotting and flow cytometry of PD-L1 and MHC-I pathway expression in SU86.86 cells; assay type: cell-based, human; details: immunoblotting, mifepristone 20 μM, 48 h with MG132 (10 μM, 6 h) or chloroquine (20 μM, 4 h)
Description: (See Bardeesy, N., et al. supra). The human PDAC cell lines SU86.86 ([…]), SW1990 ([…]), BXPC-3 ([…]), Miapaca-2 ([…]), Capan-1 ([…]), ASPC-1 ([…]), Hs766T ([…]), Colo357/FG ([…]), L3.6PL ([…]), Panc28 ([…]), Capan-2 ([…]), CF-Pac-1 ([…]), Panc3 (sex unknown), Panc1 ([…]), Panc48 (sex unknown), and HPAC ([…]) were from Mien-Chie Hung's lab stock. […] The BXPC-3, Miapaca-2, Capan-1, ASPC-1, Colo357/FG, L3.6PL, Panc28, Capan-2, CF-Pac-1, Panc3, Panc1, Panc48, and HPAC cell lines were cultured in DMEM/F-12 (Corning, 10-092-CV) supplemented with 10% FBS and 1% penicillin/streptomycin. Cells were grown in a humidified incubator with 5% CO2 at 37° C., and low-passage stocks were maintained in a centralized lab cell bank. Short tandem repeat profiling and mycoplasma tests were done by the Cytogenetics and Cell Authentication Core at MD Anderson Cancer Center.
Membranes were blocked with 10% non-fat milk in TBST and incubated with the primary antibody at 4° C. overnight, followed by incubation with the secondary antibody conjugated with horseradish peroxidase (HRP).

[1] = system: human PD-L1, HLA-B, HLA-C, and B2M gene promoter regions; test: Luciferase reporter assay in SU86.86 cells; assay type: cell-based; details: IFNγ 10 ng ml^−1, 8 h, abrogated by knockdown of GR
From the text: (§1) Human PD-L1 promoter-reporter constructs (Coelho, M. A., et al. Oncogenic RAS Signaling Promotes Tumo Immunoresistance by Stabilizing PD-L1 mRNA. Immunity 47, 1083-1099 e1086 (2017)) were purchased from Addgene (Addgene numbers: 107002, 107003, 107004, 107006, and 107007). The GR activity reporter plasmid was purchased from Qiagen (ID: C82DB0D7-3D10-4B1C-A358-411558D2DE01). The promoter regions of human HLA-B, HLA-C, and B2M were PCR-amplified from genomic DNA of the SU86.86 cell line (PCR primers are listed as SEQ ID NOs.: 1-6. The linearized pGL3-basic plasmid was amplified by PCR (Forward primer SEQ ID NO: 7; reverse primer SEQ ID NO: 8), and PCR products of promoter regions were ligated to linearized pGL3-basic using the In-Fusion HD Cloning Kit (Takara Bio, 638909).
(§2) The firefly luciferase reporter containing the human gene promoter was co-transfected with a Renilla luciferase vector (for normalization) into SU86.86 cells using jetPRIME transfection reagent (VWR, 89129-922). […] Firefly and Renilla luciferase activities were measured using a Dual-Luciferase Reporter Assay (Promega, E1910) on a microplate reader according to the manufacturer's protocol. Firefly luciferase activity was normalized to Renilla luciferase activity.

[2] = system: human PD-L1 gene promoter regions; test: Luciferase reporter assay in SW1990 cells; assay type: cell-based; details: IFNγ 10 ng ml^−1, 8 h, abrogated by knockdown of GR
From the text: as §1, §2

## CC(C)C[C@@H](C=O)NC(=O)[C@H](CC(C)C)NC(=O)[C@H](CC(C)C)NC(=O)OCc1ccccc1 [MG132] (Cbz-Leu-Leu-Leu-aldehyde)
SU86.86 cells
  effect on mifepristone-mediated PD-L1 downregulation and MHC-I upregulation: did not affect

## CCN(CC)CCCC(C)Nc1ccnc2cc(Cl)ccc12 (stereo not shown) [chloroquine]
SU86.86 cells
  effect on mifepristone-mediated PD-L1 downregulation and MHC-I upregulation: did not affect

B1: IFNγ: IFNγ (known to activate PD-L1 transcription) (protein, UniProt P01579 24-161, looked up)
Interferon gamma: QDPYVKEAENLKKYFNAGHSDVADNGTLFLGILKNWKEESDRKIMQSQIVSFYFKLFKNFKDDQSIQKSVETIKEDMNVKFFNSNKKKRDDFEKLTNYSVTDLNVQRKAIHELIQVMAELSPAAKTGKRKRSQMLFRG
[1]
  activity of the PD-L1 promoter reporters: induced
[2]
  activity of the PD-L1 promoter reporters: induced
